According to ChEMBL document CHEMBL1129804, “First synthesis and cytotoxic activity of novel docetaxel analogs modified at the C18-position” (1997):
≈ marks a conversion by molar mass, not a printed value.

Columns and labels:
Format in all cases: functional
PC-6 [1] = experiment: Compound was tested for growth inhibitory activity after 72 hr of continuous exposure against vincristine resistant cancer cell line PC-6/VCR; settings: Homo sapiens, PC-6, 72 h
PC-6 [2] = experiment: Compound was tested for growth inhibitory activity after 72 hr of continuous exposure against human lung cancer cell line PC-6; settings: PC-6, 72 h
P388 = experiment: Compound was tested for growth inhibitory activity after 72 hr of continuous exposure against mouse leukemia P388; settings: P388, 72 h

Row | GI50 (P388) [µg/mL] | SMILES | GI50 (PC-6 [1]) [µg/mL] | GI50 (PC-6 [2]) [µg/mL]
1 | 0.393 (≈ 0.433 µM) | CC(=O)NCC1=C2[C@@H](OC(C)=O)C(=O)[C@@]3(C)[C@H]([C@H](OC(=O)c4ccccc4)[C@](O)(C[C@@H]1OC(=O)[C@H](O)[C@@H](NC(=O)OC(C)(C)C)c1ccccc1)C2(C)C)[C@]1(OC(C)=O)CO[C@@H]1C[C@@H]3O | > 1 | 0.131 (≈ 0.144 µM)
2 | 0.181 (≈ 0.209 µM) | CC(=O)OCC1=C2[C@@H](O)C(=O)[C@@]3(C)[C@H]([C@H](OC(=O)c4ccccc4)[C@](O)(C[C@@H]1OC(=O)[C@H](O)[C@@H](NC(=O)OC(C)(C)C)c1ccccc1)C2(C)C)[C@]1(OC(C)=O)CO[C@@H]1C[C@@H]3O | > 1 | 0.163 (≈ 0.188 µM)
3 | 0.0401 (≈ 0.045 µM) | CC(=O)O[C@H]1C(=O)[C@@]2(C)[C@H]([C@H](OC(=O)c3ccccc3)[C@]3(O)C[C@H](OC(=O)[C@H](O)[C@@H](NC(=O)OC(C)(C)C)c4ccccc4)C(CN=[N+]=[N-])=C1C3(C)C)[C@]1(OC(C)=O)CO[C@@H]1C[C@@H]2O | 0.39 (≈ 0.438 µM) | 0.0524 (≈ 0.0588 µM)
4 | 0.00837 (≈ 0.01 µM) | CC(=O)O[C@@]12CO[C@@H]1C[C@H](O)[C@@]1(C)C(=O)[C@H](O)C3=C(CC#N)[C@@H](OC(=O)[C@H](O)[C@@H](NC(=O)OC(C)(C)C)c4ccccc4)C[C@@](O)([C@@H](OC(=O)c4ccccc4)[C@H]21)C3(C)C | 0.754 (≈ 0.905 µM) | 0.00481 (≈ 0.00578 µM)
5 | > 1 | CC(=O)O[C@@]12CO[C@@H]1C[C@H](O)[C@@]1(C)C(=O)[C@H](O)C3=C(CN4CCOCC4)[C@@H](OC(=O)[C@H](O)[C@@H](NC(=O)OC(C)(C)C)c4ccccc4)C[C@@](O)([C@@H](OC(=O)c4ccccc4)[C@H]21)C3(C)C | > 1 | > 1
6 | 0.00745 (≈ 0.00862 µM) | CCC1=C2[C@@H](OC(C)=O)C(=O)[C@@]3(C)[C@H]([C@H](OC(=O)c4ccccc4)[C@](O)(C[C@@H]1OC(=O)[C@H](O)[C@@H](NC(=O)OC(C)(C)C)c1ccccc1)C2(C)C)[C@]1(OC(C)=O)CO[C@@H]1C[C@@H]3O | 0.167 (≈ 0.193 µM) | 0.0103 (≈ 0.0119 µM)
7 | > 1 | CC(=O)O[C@H]1C(=O)[C@@]2(C)[C@H]([C@H](OC(=O)c3ccccc3)[C@]3(O)C[C@H](OC(=O)[C@H](O)[C@@H](NC(=O)OC(C)(C)C)c4ccccc4)C(C=O)=C1C3(C)C)[C@]1(OC(C)=O)CO[C@@H]1C[C@@H]2O | > 1 | 0.699 (≈ 0.809 µM)
8 | 0.00162 | CC(=O)O[C@@]12CO[C@@H]1C[C@H](O)[C@@]1(C)C(=O)[C@H](O)C3=C(C)[C@@H](OC(=O)[C@H](O)[C@@H](NC(=O)OC(C)(C)C)c4ccccc4)C[C@@](O)([C@@H](OC(=O)c4ccccc4)[C@H]21)C3(C)C.O.O.O [DOCETAXEL] | 0.173 | 0.00116
